Measured values reported in patent publication US6906205B2, “Spiro and dispiro 1,2,4-trioxolane antimalarials” (Medicines for Malaria Venture MMV, priority 2002, dated 2005).
In brackets after ≈: the same amount, converted by molar mass. Where two headings read alike, the source gives them in different places.

Tests used:
[1] = test system: P. falciparum K1 strain (Thailand resistant to chloroquine); test: semiautomated microdilution assay, [3H]-hypoxanthine incorporation, K1 strain; format: cell-based, Plasmodium falciparum; details: for IC50: Plasmodium falciparum, read-out: IC50 (ng/ml) K1
Method: (§1) Various OZ compounds were tested by the semiautomated microdilution assay against intraerythrocytic forms of Plasmodium falciparum derived from asynchronous stock cultures.
(§2) Fifty percent inhibitory concentration (IC50) were estimated by Logit regression analysis.

[2] = test system: ANKA strain of P. berghei; test: single dose STI in vivo screen in infected mice; parameters: species or system Plasmodium berghei; details: for Activity (%) po / Activity (%) sc / Activity (%) SSVpo: percent reduction in parasitemia day 3 post-infection, mice; for Activity (%) po / Survival (days) po: single 10 mg/kg po in 3% ethanol and 7% Tween 80; for Activity (%) sc / Survival (days) sc: single 10 mg/kg sc in 3% ethanol and 7% Tween 80; for Survival (days) po / Survival (days) sc / Survival (days) SSVpo: untreated control 5.6 ± 0.3; for Activity (%) SSVpo: single po dose in standard suspending vehicle (SSV); for Survival (days) SSVpo: single po dose in SSV
Method: In the single dose STI in vivo screen, Moro SPF or NMRI mice infected with the ANKA strain of P. berghei (groups of 3-5 mice) were treated on day one post-infection with trioxolanes dissolved or suspended in 3% ethanol and 7% Tween 80. […] SSV consists of 0.5% w/v CMC, 0.5% v/v benzyl alcohol, 0.4% v/v Tween 80, and 0.9% w/v sodium chloride in water. Antimalarial activity was measured by percent reduction in parasitemia on day three post-infection and survival times compared to an untreated control group. Survival to day 30 post-infection is considered to be a cure. […] Other factors influencing antimalarial activity include the stability of carbon radicals formed by β-scission subsequent to the initial electron transfer to the peroxide bond and the influence of steric effects remote from the peroxide bond on the interactions between carbon radicals and potential drug targets.

[3] = test system: P. falciparum NF54 strain (sensitive to standard antimalarials); test: semiautomated microdilution assay, [3H]-hypoxanthine incorporation, NF54 strain; format: cell-based, Plasmodium falciparum; details: for IC50: Plasmodium falciparum, read-out: IC50 (ng/ml) NF54
Method: as §1, §2

Row | SMILES | IC50 (ng/ml) K1 ([1]; K1 strain, 72 h incubation) | Activity (%) po [2] | Activity (%) sc [2] | Survival (days) po [2] | Survival (days) sc [2] | IC50 (ng/ml) NF54 ([3]; NF54 strain, 72 h incubation) | IC50 ([1]; K1 strain, 72 h incubation) | IC50 ([3]; NF54 strain, 72 h incubation) | IC50 ([1]; K1, 72 h) | Activity (%) SSVpo [2] | Survival (days) SSVpo [2] | IC50 ([3]; NF54, 72 h)
1 | O=C1CC2CC(C1)CC1(C2)OOC2(O1)C1CC3CC(C1)CC2C3 (stereo not drawn) [OZ13] | 0.40 ng/mL (≈ 1.26 nM) | 56% | 99.7% | 6.7 days | 9.7 days | 0.50 ng/mL (≈ 1.57 nM) | – | – | – | – | – | –
2 | O=C1CCC2(CCO1)OOC1(O2)C2CC3CC(C2)CC1C3 (stereo not drawn) [OZ17] | – | 0% | 18% | 5.3 days | 6.3 days | – | 85 ng/mL (≈ 289 nM) | > 100 ng/mL | – | – | – | –
3 | OC1CCC2(CC1)OOC1(O2)C2CC3CC(C2)CC1C3 (stereo not drawn) [OZ32] | – | 79% | 91% | 6.7 days | 8.7 days | – | – | – | 0.25 ng/mL (≈ 0.892 nM) | 93% | 7.0 days | 0.51 ng/mL (≈ 1.82 nM)
4 | c1ccc(C2(c3ccccc3)CCC3(CC2)OOC2(O3)C3CC4CC(C3)CC2C4)cc1 (stereo not drawn) [OZ34] | 42 ng/mL (≈ 101 nM) | 0/NA/0% | 0/NA/0% | 5.3 days | 5.7 days | 60 ng/mL (≈ 144 nM) | – | – | – | – | – | –
5 | O=C1c2ccccc2C(=O)N1N=C1CCC2(CC1)OOC1(O2)C2CC3CC(C2)CC1C3 (stereo not drawn) [OZ38] | 0.86 ng/mL (≈ 2.04 nM) | 83% | 99.98% | 6.7 days | 25.3 days | 1.3 ng/mL (≈ 3.08 nM) | – | – | – | 15% | 5.0 days | –
6 | Cc1ccc(S(=O)(=O)NN=C2CCC3(CC2)OOC2(O3)C3CC4CC(C3)CC2C4)cc1 (stereo not drawn) [OZ39] | 1.4 ng/mL (≈ 3.14 nM) | 61% | 99.3% | 6.3 days | 7.7 days | 1.8 ng/mL (≈ 4.03 nM) | – | – | – | – | – | –
7 | CC(C)C1CCC2(CC1)OOC1(O2)C2CC3CC(C2)CC1C3 (stereo not drawn) [OZ40] | 1.4 ng/mL (≈ 4.57 nM) | 99% | 99.8% | 7.3 days | 9.0 days | 2.0 ng/mL (≈ 6.53 nM) | – | – | – | – | – | –
8 | Fc1ccc(C2CCC3(CC2)OOC2(O3)C3CC4CC(C3)CC2C4)cc1 (stereo not drawn) [OZ41] | 3.5 ng/mL (≈ 9.76 nM) | 99.98% | 99.5% | 12.1 days | 10.7 days | 4.6 ng/mL (≈ 12.8 nM) | – | – | – | 81% | 6.8 days | –
9 | c1ccc(C2(c3ccccc3)OOC3(O2)C2CC4CC(C2)CC3C4)cc1 (stereo not drawn) [OZ42] | 2.3 ng/mL (≈ 6.6 nM) | 68% | 92% | 6.0 days | 7.0 days | 2.6 ng/mL (≈ 7.46 nM) | – | – | – | – | – | –
10 | Fc1ccc(C2(c3ccc(F)cc3)OOC3(O2)C2CC4CC(C2)CC3C4)cc1 (stereo not drawn) [OZ44] | 2.5 ng/mL (≈ 6.5 nM) | 99.3% | 99.9% | 7.0 days | 8.3 days | 2.3 ng/mL (≈ 5.98 nM) | – | – | – | – | – | –
11 | Fc1c(F)c(F)c(C2(c3c(F)c(F)c(F)c(F)c3F)OOC3(O2)C2CC4CC(C2)CC3C4)c(F)c1F (stereo not drawn) [OZ45] | 17 ng/mL (≈ 32.2 nM) | 15% | 16% | 6.0 days | 5.0 days | 27 ng/mL (≈ 51.1 nM) | – | – | – | – | – | –
12 | Clc1ccc(C2CCC3(CC2)OOC2(O3)C3CC4CC(C3)CC2C4)cc1 (stereo not drawn) [OZ47] | 7.5 ng/mL (≈ 20 nM) | 99.98% | 99% | 12.7 days | 8.0 days | 7.4 ng/mL (≈ 19.7 nM) | – | – | – | – | – | –
13 | Cc1ccc(S(=O)(=O)N2CCC3(CC2)OOC2(O3)C3CC4CC(C3)CC2C4)cc1 (stereo not drawn) [OZ51] | 2.5/2.5 ng/ml | 89% | 100% | 7.0 days | 14 days | 2.5/2.5 ng/ml | – | – | – | – | – | –
